Experimental data taken from patent publication US20070202047A1, “Polyamine-substituted ligands for use as contrast agents” (priority 2006, published 2007).
Entries after “also recorded” stand apart in the source; their conditions may differ. Values belong to the compound of their own block, whether it stands above or below them.

Legend:
[1] = tested on: MH3924A Morris hepatoma cells; assay: Intracellular uptake of gadolinium complexes (ICP-MS); format: cell-based, rat
Method: (§1) Cell culture. B16 melanoma cells (mouse) and MH3924A Morris hepatoma cells (rat) were obtained from the German Cancer Research Center (DKFZ) tumor bank and grown at 37° C. as stock cultures in RPMI 1640 supplemented with 10% fetal calf serum and 1% glutamine as standard medium under a 5% CO2 atmosphere (all components: Pan Biotech GmbH, Aidenbach, Germany). For contrast agent uptake studies 10^6 cells were inoculated into 25 cm^2 culture flasks (BD Biosciences, Bedford, USA) and grown for 24 h in 10 mL of the standard culture medium. Cells were then incubated for an additional 24 h (1 h for temperature dependence studies) with fresh medium containing 0, 1, 2.5, 5 or 10 μM of the selected gadolinium complex (three replicate flasks for each incubation). Afterwards the medium was removed, cells were trypsinated, washed twice, resuspended in culture medium and counted (typical yields: 3.5-6 million cells). For comparison 2.5×10^5 human melanocytes (Promo Cell, Heidelberg, Germany) were incubated for 24 h with melanocyte growth medium (Promo Cell, Heidelberg, Germany) containing 0, 1, 2.5, 5 or 10 μM of the selected gadolinium complex (two replicate flasks for each incubation). The work up procedure was as described above typically yielding 2.5×10^5 cells. Cultured human hepatocytes (Cytonet GmbH, Weinheim, Germany) embedded in a collagen matrix in a 12 well microtiter plate, with 6×10^5 viable cells per well were incubated for 24 h in hepatocyte growth medium (Cytonet GmbH, Weinheim, Germany) containing the same concentration series of selected gadolinium complexes. Afterwards the medium was removed, cells were separated using collagenase (Roche Diagnostics, Mannheim, Germany). After digestion the cells were washed twice with PBS, resuspended in culture medium and counted (typical yields: 6×10^5 cells per tube). The intracellular gadolinium content was determined by ICP-MS as described below.
(§2) ICP-MS. Samples containing the above mentioned number of harvested cells were digested with 50% concentrated HNO3 (Superselect; Merck, Darmstadt, Germany) under microwave heating with a Mars 5 apparatus (CEM GmbH, Kamp-Lintfort, Germany). To each sample 100 μL of an aqueous solution of rhodium chloride (1 μg/mL) were added so that Rh-103 could be used as an internal quantification standard. Gd-160 measurements were performed with the ICP-MS instrument mentioned above. The gadolinium concentrations were determined using standard curves created prior to cell analyses. For each uptake incubation condition triplicate cell samples were analyzed, and Gd content for each sample was recorded as the mean of two MS determinations.
(§3) Intracellular Uptake of Gadolinium Complexes. B16 melanoma and MH3924A hepatoma cells as well as human melanocytes and hepatocytes were incubated for 24 h in the presence of the gadolinium complexes shown in FIG. 1, using concentrations in the range of 1-10 μM. Incubations with the unsubstituted [Gd(DTPA)(H2O)]^2−complex (Magnevist®) served as controls. Following cell harvest and hydrolysis, inductively coupled plasma mass spectrometry (ICP-MS) with direct detection of gadolinium was used to quantitate complex uptake (triplicate cultures for each incubation).
(§4) Cell Uptake Studies. A493 (human kidney), B16 melanoma cells (mouse), HeLa (human cervix), MCF-7 (human breats), MH3924A (Morris hepatoma) cells (rat) and 3T3 NIH (mouse fibroblasts) were obtained from the DKFZ tumor cell collection. 3×10^6 cells of each cell type were grown for 24 hours in culture flasks. Afterwards they were incubated for 1 hour in 10 mL culture media containing 0, 10, 50 and 100 μM of Gd-2.2. Gd-3.2 or Gd-4.2. Afterwards the medium was removed, the cells were trypsinated, washed twice, resuspended in culture medium and counted. The gadolinium uptake was determined in triplicate. […] cells were incubated with 0, 1, 2.5, 5 and 10 μM of the Gd-1.2. and Gd-5.2. for 24 h. […]

B16 melanoma cells = assay: as above; format: cell-based, mouse; details: for factor of higher cellular uptake in B16 melanoma vs. the hepatoma cells: 24-h incubation (FIG. 2A)
Method: as §1, §2, §3, §4

Complex stability = format: physicochemical; details: method of Sherry et al.
Method: Complex stability. The stability constants were determined using a method of Sherry et al. (39).

[2] = Biodistribution and excretion in tumor-bearing ACI rats; format: in vivo, rat
Method: (§5) Animal models. For in vivo tumor studies 2×10^6 MH3924A tumor cells were injected subcutaneously into the right thigh of male ACI rats (Charles River, Sulzfeld, Germany) weighing 220 to 260 g. All animal experiments were performed in compliance with the German Animal Protection Laws (Permission 35-9185.81/G-7-03, Reg.-Praesidium, Karlsruhe, Germany).
Biodistribution and excretion data. At 14 days after tumor inoculation, when tumors had reached a diameter of ca. 5-6 mm, the biodistribution experiments were initiated. Each animal (210-250 g) was given an intravenous tail-vein injection of […] Magnevist® (Schering, Berlin, Germany) or […] of Gd-5.1. or Gd-6.1. 1 h and 24 hs post-injection (p.i.), the animals were weighed, sacrificed by cervical dislocation and dissected. Organs or tissues were blotted dry and weighed. Samples containing 100-500 mg of the tumor or organs were digested with concentrated HNO3 (Superselect; Merck, Darmstadt, Germany) and H2O2 under microwave heating with a Mars 5 apparatus (CEM GmbH, Kamp-Lintfort, Germany). To each sample 100 μL of an aqueous solution of rhodium chloride (1 μg/mL) were added so that Rh-103 could be used as an internal quantification standard. Gd-160 measurements were performed with the ICP-MS instrument mentioned above. The gadolinium concentrations were determined using standard curves created prior to tissue analyses. The results were expressed as % ID/g tissue. Urine and faeces were gathered in order to measure the excreted amount of Gd(III).

[3] = tested on: subcutaneous MH3924A tumor; assay: MRI of ACI rats bearing a subcutaneous MH3924A tumor; format: in vivo, rat; details: 24 h post Gd, 0.1 mmol/kg i.v., 2.35 T
Method: as §5
MRI. At 25 days after inoculation, when tumors had reached a diameter of ca. 10-15 mm, the MR imaging experiments were initiated. ACI rats were anesthetized by intravenous injection of ketamin (Ketanest®, 0.1 mg/g body wt.; Parke-Davis, Berlin, Germany). Then a dose of 0.1 mmol/kg Magnevist® or Gadovist® (Schering, Berlin, Germany) or one of the synthesized agents Gd-3.1., Gd-5.1. or Gd-6.1. was injected intravenously into a lateral tail vein. For one experiment a higher dose (0.36 mmol/kg) of Magnevist® was used. Individual rats were examined by MRI at 1 h and 24 h post Gd, in the case of Magnevist® also at ca. 15 min post Gd. Proton imaging studies were performed at 2.35 T (100.3 MHz) with a Biospec 24/40 instrument (Bruker BioSpin MRI, Ettlingen, Germany). […] Two transaxial multislice imaging protocols were applied with a field of view of 70×70 mm, 128 time-domain data points, 96 phase-encoding steps, and 16 slices of 2 mm thickness. A multi-spin-echo sequence was used for proton-density and T2-weighted images (repetition time TR=2 s, 12 echoes with echo times TE of 8, 16, 24, . . . 96 ms, number of averages=1), and a spoiled gradient-echo sequence was used for T1-weighted imaging (TR=212 ms, TE=5 ms, flip angle=60°, number of averages=3). The data were Fourier transformed to give a 128×128 image matrix with 0.55 mm pixel resolution. Analogous T1-weighted images with coronal slices were acquired with a field of view of 80×80 mm and 3-mm slice thickness.
Imaging viewing, ROI analysis and export of TIFF files was performed with the freeware MRIcro from Chris Rorden (http://people.cas.sc.edu/rorden/mricro.html).

MH3924A cells = assay: Polyamine transport inhibition (binding inhibition assay with benzyl viologen); format: cell-based, rat; details: 25 fold molar excess of benzyl viologen over 1 μM Gd-5.1 or Gd-6.1, MH3924A
Method: Polyamine transport inhibition. 10^6 MH3924A cells were inoculated into 25 cm^2 culture flasks (BD Biosciences, Bedford, USA) and grown for 24 h in 10 mL of the standard culture medium. Cells were then incubated for an additional 24 h with fresh medium containing 1 μM of Gd-5.1. or Gd-6.1. and 0, 1, 10, 25, 50 or 100 μM of the polyamine uptake inhibitor benzyl viologen (34, 35). Afterwards the medium was removed, cells were trypsinated, washed twice, resuspended in culture medium and counted (typical yields: 3.5-6 million cells). The gadolinium content of the cells was determined by ICP-MS as described below.
as §2

[4] = 1 h post i.v. injection, one ACI rat, scaled to Gd dose of 100 μmol/kg

Structure (SMILES): CCN(CC)CCNC(=O)c1ccc(NC(=O)CN(CCN(CCN(CC(=O)[O-])CC(=O)Nc2ccc(C(=O)NCCN(CC)CC)cc2)CC(=O)[O-])CC(=O)[O-])cc1.[Gd+3] [Gd-1.1]
intracellular uptake of gadolinium complex ([1]; MH3924A cells, 24-h incubation, 10 μM): ca. 0.062 fmol/cell | factor of higher cellular uptake in B16 melanoma vs. the hepatoma cells (B16 melanoma cells): ~2.2

Structure (SMILES): CCN(CC)CCNC(=O)c1ccc(NC(=O)CN2CCN(CC(=O)[O-])CCN(CC(=O)[O-])CCN(CC(=O)[O-])CC2)cc1.[Gd+3] [Gd-1.2]
relative uptake (in words) ([1]; B16 and MH3924A, 24 h incubation, 1-10 μM): sufficient for MRI imaging purposes but was the lowest of all tested complexes

Structure (SMILES): CCN(CC)CCNC(=O)CN(CCN(CCN(CC(=O)[O-])CC(=O)NCCN(CC)CC)CC(=O)[O-])CC(=O)[O-].[Gd+3] [Gd-2.1]
factor of higher cellular uptake in B16 melanoma vs. the hepatoma cells (B16 melanoma cells): ~1.72

Structure (SMILES): CCCCCCCCCNC(=O)CN(CCN(CCN(CC(=O)[O-])CC(=O)NCCN(CC)CC)CC(=O)[O-])CC(=O)[O-].[Gd+3] [Gd-4.1]
intracellular uptake (neglectable, near the detection limit) (B16 melanoma cells; 24-h incubation, cell line and concentration not stated): 0.0036 fmol/cell

Structure (SMILES): NCCCNCCCCN(CCCN)C(=O)CN1CCN(CC(=O)[O-])CCN(CC(=O)[O-])CCN(CC(=O)[O-])CC1.[Gd+3] [Gd-4.2]
relative uptake (in words) ([1]; MH3924A and B16 melanoma cells, 1 h incubation, 100 μM): comparable with the uptake of Gd-2.2., but somewhat lower; also recorded: lower than uptake of Gd-3.2. and Gd-2.2., but still sufficient for MRI imaging

complex stability constant (Complex stability): 4.22×10^15
Structure (SMILES): NCCCCN(CCCNCCCN)C(=O)CN(CCN(CCN(CC(=O)[O-])CC(=O)N(CCCCN)CCCNCCCN)CC(=O)[O-])CC(=O)[O-].[Gd+3] [Gd-5.2]
intracellular uptake of gadolinium complex ([1]; MH3924A, 24 h incubation, 1-10 μM (concentration not given)): 0.3 fmol/cell | intracellular uptake of gadolinium complex (B16 melanoma cells; B16 melanoma cells, 24 h incubation, 1-10 μM (concentration not given)): 0.03 fmol/cell

Gd concentration, Blood [2, 4]: 4.8 nmol/g | Gd concentration, Bone (femur) [2, 4]: 0.8 nmol/g | Gd concentration, Bone Marrow (femur) [2, 4]: 1.5 nmol/g | Gd concentration, Brain [2, 4]: 0.4 nmol/g | Gd concentration, Kidney (+urine) [2, 4]: 40.7 nmol/g | Gd concentration, Liver [2, 4]: 3.0 nmol/g | Gd concentration, Lung [2, 4]: 4.1 nmol/g | Gd concentration, Muscle (femur) [2, 4]: 1.3 nmol/g | Gd concentration, Small Intestine [2, 4]: 1.8 nmol/g | Gd concentration, Spleen [2, 4]: 1.5 nmol/g | Gd concentration, Tumor (MH3924A) [2, 4]: 3.1 nmol/g | Gd concentration, Urine (cumulative) [2, 4]: 25805.3 nmol/g | gadolinium found in the urine ([2]; one hour post injection, ACI rat): 88%
Structure (SMILES): CNC[C@H](O)[C@@H](O)[C@H](O)[C@H](O)CO.CNC[C@H](O)[C@@H](O)[C@H](O)[C@H](O)CO.O=C([O-])CN(CCN(CC(=O)[O-])CC(=O)O)CCN(CC(=O)[O-])CC(=O)O.[Gd+3] [Magnevist, gadopentetate dimeglumine, reference compound]
intracellular uptake (below ICP-MS detection limit) ([1]; MH3924A cells, 24-h incubation, 1-10 μM, listed as [Gd(DTPA)(H2O)]^2−): < 0.0002 fmol/cell | contrast ratio tumor vs. muscle tissue, T1 weighting [3]: no contrast with T1 weighting was achieved | intracellular uptake (below ICP-MS detection limit) (B16 melanoma cells; B16 melanoma cells, 24-h incubation, 1-10 μM): < 0.00002 fmol/cell | intracellular uptake (below ICP-MS detection limit) (B16 melanoma cells; B16 melanoma cells, 24-h incubation, 1-10 μM, listed as [Gd(DTPA)(H2O)]^2−): < 0.0002 fmol/cell

Structure (SMILES): O.O=C([O-])CN1CCN(CC(=O)[O-])CCN(CC(=O)[O-])CCN(CC(=O)[O-])CC1.[Gd+3] [[Gd(DOTA)(H2O)]^−, reference compound]
intracellular uptake (below ICP-MS detection limit) ([1]; MH3924A cells, control incubation of Example 2): < 0.0002 fmol/cell | intracellular uptake (below ICP-MS detection limit) (B16 melanoma cells; B16 melanoma cells, control incubation of Example 2): < 0.0002 fmol/cell

Structure (SMILES): c1ccc(C[n+]2ccc(-c3cc[n+](Cc4ccccc4)cc3)cc2)cc1 [benzyl viologen]
inhibition of Gd complex uptake (MH3924A cells): up to 90%
